This note sets out measurements from ChEMBL document CHEMBL5236593, “Design, synthesis and biological evaluation studies of novel anti-fibrosis agents bearing sulfoxide moiety” (2022).

Structures are written as SMILES. Active and inactive are the calls of the source. The rule behind the calls is not given here.

Test [1] deals with LX-2. Description: Anti-fibrotic activity in human LX2 cells assessed as downregulation of CTGF mRNA expression at 0.1 to 1 uM pretreated with compound for 30 mins followed by TGF-beta stimulation and measured after 24 hrs by qRT-PCR analysis. Type of test: functional, cell-based. Conditions: dose 0.1-1 µM, time 24.5 hrs. Background: Quantitative PCR measures a nucleic acid by following its amplification.

In test [2] the test system is HRMC. Description: Anti-fibrotic activity in human HRMC cells assessed as downregulation of COL4A1 mRNA expression at 1 uM pretreated with compound for 30 mins followed by TGF-beta stimulation and measured after 24 hrs by qRT-PCR analysis. The class given is functional, cell-based. The following applies: time 24.5 hrs.
Test [3] is described as follows: Anti-fibrotic activity in human NHCF-V cells assessed as downregulation of CTGF mRNA expression at 0.1 to 1 uM pretreated with compound for 30 mins followed by TGF-beta stimulation and measured after 24 hrs by qRT-PCR analysis. The class given is functional. The following applies: dose 0.1-1 µM, time 24.5 hrs.
The subject of test [4] is Mus musculus. Description: Anti-fibrotic activity against CCl4-induced liver fibrosis C57BL/6 mouse model assessed as reduction in serum TBIL level at 200 mg/kg, ig administered for 27 days with first injection started at 24 hrs post-first CCl4 challenge and measured at 48 hrs post-last administration. Type of test: functional, organism-based. The following applies: time 29.0 day.

The subject of test [5] is Mus musculus. Description: Anti-fibrotic activity against CCl4-induced liver fibrosis C57BL/6 mouse model assessed as reduction in serum hydroxyproline content at 200 mg/kg, ig administered for 27 days with first injection started at 24 hrs post-first CCl4 challenge and measured at 48 hrs post-last administration. The class given is functional, organism-based. The following applies: time 29.0 day.

Test [6] deals with Mus musculus. Description: Anti-fibrotic activity against BLM-induced pulmonary fibrosis C57BL/6 mouse model assessed as reduction in lung fibrosis at 200 mg/kg administered via gavage for 13 days with first injection started at 24 hrs post-first BLM challenge and measured after 24 hrs by Ashcroft score based analysis. Conditions: time 14.0 day. The class given is functional, organism-based.

Test [7] concerns Mus musculus. Description: Anti-fibrotic activity against BLM-induced pulmonary fibrosis C57BL/6 mouse model assessed as reduction in area of lung fibrosis at 200 mg/kg administered via gavage for 13 days with first injection started at 24 hrs post-first BLM challenge and measured after 24 hrs by H and E staining based microscopic analysis. Conditions: time 14.0 day. The class given is functional, organism-based.

Test [8] is described as follows: Anti-fibrotic activity in human NHCF-V cells assessed as downregulation of ACTA2 mRNA expression at 0.1 to 1 uM pretreated with compound for 30 mins followed by TGF-beta stimulation and measured after 24 hrs by qRT-PCR analysis. Type of test: functional. The following applies: dose 0.1-1 µM, time 24.5 hrs.
Test [9] relates to HRMC. Description: Anti-fibrotic activity in human HRMC cells assessed as downregulation of COL16A1 mRNA expression at 1 uM pretreated with compound for 30 mins followed by TGF-beta stimulation and measured after 24 hrs by qRT-PCR analysis. The class given is functional, cell-based. The following applies: time 24.5 hrs.
In test [10] the test system is Mus musculus. The test can be described thus: Anti-fibrotic activity against BLM-induced pulmonary fibrosis C57BL/6 mouse model assessed as reduction in hydroxyproline content in lungs at 200 mg/kg administered via gavage for 13 days with first injection started at 24 hrs post-first BLM challenge and measured after 24 hrs. Type of test: functional, organism-based. The following applies: time 14.0 day.

Test [11] relates to Mus musculus. Description: Anti-fibrotic activity against BLM-induced pulmonary fibrosis C57BL/6 mouse model assessed as reduction in lung inflammation at 200 mg/kg administered via gavage for 13 days with first injection started at 24 hrs post-first BLM challenge and measured after 24 hrs by H and E staining based microscopic analysis. The class given is functional, organism-based. The following applies: time 14.0 day.

The test system of test [12] is Mus musculus. Description: Anti-fibrotic activity against BLM-induced pulmonary fibrosis C57BL/6 mouse model assessed as reduction in lung inflammation at 200 mg/kg administered via gavage for 13 days with first injection started at 24 hrs post-first BLM challenge and measured after 24 hrs by Masson's trichrome staining based analysis. The class given is functional, organism-based. Conditions: time 14.0 day.

Test [13] has as its system HRMC. The test can be described thus: Anti-fibrotic activity in human HRMC cells assessed as downregulation of CTGF mRNA expression at 1 uM pretreated with compound for 30 mins followed by TGF-beta stimulation and measured after 24 hrs by qRT-PCR analysis. The following applies: time 24.5 hrs. The class given is functional, cell-based.
Test [14] concerns Mus musculus. The test can be described thus: Anti-fibrotic activity against CCl4-induced liver fibrosis C57BL/6 mouse model assessed as reduction in serum IBIL level at 200 mg/kg, ig administered for 27 days with first injection started at 24 hrs post-first CCl4 challenge and measured at 48 hrs post-last administration. Type of test: functional, organism-based. The following applies: time 29.0 day.

For test [15], the system named is Mus musculus. Description: Anti-fibrotic activity against CCl4-induced liver fibrosis C57BL/6 mouse model assessed as reduction in serum ALT level at 200 mg/kg, ig administered for 27 days with first injection started at 24 hrs post-first CCl4 challenge and measured at 48 hrs post-last administration. The class given is functional, organism-based. Conditions: time 29.0 day.

Test [16] can be described thus: Anti-fibrotic activity in human NHCF-V cells assessed as downregulation of PAI-1 mRNA expression at 0.1 to 1 uM pretreated with compound for 30 mins followed by TGF-beta stimulation and measured after 24 hrs by qRT-PCR analysis. Conditions: dose 0.1-1 µM, time 24.5 hrs. Type of test: functional.
Test [17] concerns Mus musculus. The test can be described thus: Anti-fibrotic activity against CCl4-induced liver fibrosis C57BL/6 mouse model assessed as reduction in liver bridging fibrosis at 200 mg/kg, ig administered for 27 days with first injection started at 24 hrs post-first CCl4 challenge and measured at 48 hrs post-last administration by Masson's trichrome staining based analysis. The class given is functional, organism-based. The following applies: time 29.0 day.

Test [18] has as its system LX-2. The test can be described thus: Anti-fibrotic activity in human LX2 cells assessed as downregulation of ACTA2 mRNA expression at 0.1 to 1 uM pretreated with compound for 30 mins followed by TGF-beta stimulation and measured after 24 hrs by qRT-PCR analysis. The class given is functional, cell-based. Conditions: dose 0.1-1 µM, time 24.5 hrs.
Test [19] concerns HRMC. Description: Anti-fibrotic activity in human HRMC cells assessed as downregulation of IL11 mRNA expression at 1 uM pretreated with compound for 30 mins followed by TGF-beta stimulation and measured after 24 hrs by qRT-PCR analysis. Type of test: functional, cell-based. Conditions: time 24.5 hrs.
Test [20] concerns Mus musculus. Description: Anti-fibrotic activity against BLM-induced pulmonary fibrosis C57BL/6 mouse model assessed as reduction in area of lung fibrosis at 200 mg/kg administered via gavage for 13 days with first injection started at 24 hrs post-first BLM challenge and measured after 24 hrs by Masson's trichrome staining based analysis. Type of test: functional, organism-based. The following applies: time 14.0 day.

Test [21] concerns LX-2. Description: Anti-fibrotic activity in human LX2 cells assessed as downregulation of CTGF mRNA expression at 1 uM pretreated with compound for 30 mins followed by TGF-beta stimulation and measured after 24 hrs by qRT-PCR analysis. The class given is functional, cell-based. Conditions: time 24.5 hrs.
Test [22] concerns NHCF-V. The test can be described thus: Anti-fibrotic activity in human NHCF-V cells assessed as downregulation of TGF-beta1 mRNA expression at 1 uM pretreated with compound for 30 mins followed by TGF-beta stimulation and measured after 24 hrs by qRT-PCR analysis. The following applies: time 24.5 hrs. The class given is functional, cell-based.
The subject of test [23] is NHCF-V. Description: Anti-fibrotic activity in human NHCF-V cells assessed as downregulation of CTGF mRNA expression at 1 uM pretreated with compound for 30 mins followed by TGF-beta stimulation and measured after 24 hrs by qRT-PCR analysis. Type of test: functional, cell-based. Conditions: time 24.5 hrs.
In test [24] the test system is LX-2. The test can be described thus: Anti-fibrotic activity in human LX2 cells assessed as downregulation of ACTA2 mRNA expression at 1 uM pretreated with compound for 30 mins followed by TGF-beta stimulation and measured after 24 hrs by qRT-PCR analysis. Type of test: functional, cell-based. The following applies: time 24.5 hrs.
For test [25], the system named is NHCF-V. Description: Anti-fibrotic activity in human NHCF-V cells assessed as downregulation of ACTA2 mRNA expression at 1 uM pretreated with compound for 30 mins followed by TGF-beta stimulation and measured after 24 hrs by qRT-PCR analysis. The class given is functional, cell-based. Conditions: time 24.5 hrs.
For test [26], the system named is LX-2. The test can be described thus: Anti-fibrotic activity in human LX2 cells assessed as downregulation of COL1A1 mRNA expression at 1 uM pretreated with compound for 30 mins followed by TGF-beta stimulation and measured after 24 hrs by qRT-PCR analysis. The class given is functional, cell-based. Conditions: time 24.5 hrs.
The test system of test [27] is LX-2. The test can be described thus: Anti-fibrotic activity in human LX2 cells assessed as downregulation of PAI-1 mRNA expression at 1 uM pretreated with compound for 30 mins followed by TGF-beta stimulation and measured after 24 hrs by qRT-PCR analysis. The class given is functional, cell-based. Conditions: time 24.5 hrs.
For test [28], the system named is NHCF-V. Description: Anti-fibrotic activity in human NHCF-V cells assessed as downregulation of PAI-1 mRNA expression at 1 uM pretreated with compound for 30 mins followed by TGF-beta stimulation and measured after 24 hrs by qRT-PCR analysis. Type of test: functional, cell-based. The following applies: time 24.5 hrs.
In test [29] the test system is Mus musculus. The test can be described thus: Anti-fibrotic activity against CCl4-induced liver fibrosis C57BL/6 mouse model assessed as reduction in liver bridging fibrosis at 250 mg/kg, ig administered for 27 days with first injection started at 24 hrs post-first CCl4 challenge and measured at 48 hrs post-last administration by Masson's trichrome staining based analysis. Type of test: functional, organism-based. Conditions: time 29.0 day.

For the compound `CC1(C[S+]([O-])Cc2ccccc2)COC1` (centres undefined), the result in the test with LX-2 [1], with Mus musculus [4], in the test with Mus musculus [5], in the test on Mus musculus [6], in the test on Mus musculus [7] and in the test with Mus musculus [10] was Active. Moreover, the result in the test with Mus musculus [11], in the test with Mus musculus [12], with Mus musculus [14], with Mus musculus [15], in the test with Mus musculus [17] and in the test on LX-2 [18] was Active. Also, in the test on Mus musculus [20], the outcome was Active. In addition, the outcome in the test on HRMC [2], in the test on HRMC [9], with HRMC [13] and in the test with HRMC [19] was inactive. The “inhibition (INH)” value in test [3], in test [8] and in test [16] was under 30% throughout.

Turning to `NC(=O)C[S+]([O-])c1cccc(F)c1` (centres undefined), the outcome in the test on LX-2 [21], with HRMC [2], with NHCF-V [22], in the test with NHCF-V [23], in the test on LX-2 [24] and in the test with NHCF-V [25] was inactive. Moreover, the result with HRMC [9], in the test with HRMC [13], in the test with LX-2 [26], in the test on HRMC [19], with LX-2 [27] and with NHCF-V [28] was inactive.

In the case of `CCC1(C[S+]([O-])c2cccc(F)c2)COC1` (centres undefined), in the test with NHCF-V [28], the outcome was Active.

For `NC(=O)C[S+]([O-])Cc1ccccc1` (centres undefined), the outcome with LX-2 [21], in the test on HRMC [2], in the test with NHCF-V [22], in the test on NHCF-V [23], with LX-2 [24] and in the test with NHCF-V [25] was inactive. Moreover, the outcome with HRMC [9], in the test with HRMC [13], with LX-2 [26], in the test with HRMC [19], with LX-2 [27] and in the test with NHCF-V [28] was inactive.

On to `Cc1ccc(=O)n(-c2ccccc2)c1`, for which the result with Mus musculus [29] was Active.

As to `CC1(C[S+]([O-])c2ccccc2)COC1` (centres undefined), the outcome in the test on LX-2 [21], in the test on HRMC [2], in the test on NHCF-V [22], in the test on NHCF-V [23], in the test on LX-2 [24] and in the test with NHCF-V [25] was inactive. The result with HRMC [9], with HRMC [13], in the test with Mus musculus [17], in the test on LX-2 [26], in the test on HRMC [19] and in the test with LX-2 [27] was inactive. Moreover, the outcome in the test on NHCF-V [28] was inactive. Moreover, the outcome with Mus musculus [4], in the test on Mus musculus [6], with Mus musculus [14] and in the test with Mus musculus [15] was Active.

As to `CC1(C[S+]([O-])c2cccc(F)c2)COC1` (centres undefined), the result with HRMC [9] was Active.
